These results are taken from ChEMBL document CHEMBL1201862, “PubChem BioAssay data set” (2004).

The structures appear in SMILES notation.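 Interpolation was linear, between the two tested concentrations surrounding the appropriate level; five concentrations were tested over 48 hours in 96-well plates. GI50 is the concentration that inhibits growth by half.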 Calls of active or inactive are those of the source. Cut-off read from the data, not from the text of the source: active = GI50 up to about 1.1 µM and inactive = higher. A value given as a limit tells only on which side of the number the result lay.

By GI50 is commonly meant the concentration giving 50% growth inhibition.

Holding throughout (test): DTP human tumour cell line panel, 48 h
For assay [1], the system named is DU-145.
For assay [2], the system named is NCI/ADR-RES.
Assay [3] has as its system SK-MEL-2.
Assay [4] deals with ACHN.
Assay [5] concerns TK-10.
For assay [6], the system named is OVCAR-4.
The test system of assay [7] is HCT-116.
For assay [8], the system named is NCI-H460.
The test system of assay [9] is 786-0.
The test system of assay [10] is CAKI-1.
Assay [11] concerns KM12.
Assay [12] has as its system Hs-578T.
Assay [13] deals with SW-620.
Assay [14] has as its system RPMI-8226.
Assay [15] has as its system U-251.
Assay [16] concerns HOP-62.
For assay [17], the system named is OVCAR-5.
Assay [18] deals with UO-31.
Assay [19] has as its system CCRF-CEM.

For `NCCSc1nc(-c2ccccc2)c(-c2ccccc2)o1`, the GI50 in assay [1] is > 100 µM (inactive); in assay [2], > 100 µM (inactive); in [3], > 100 µM (inactive); in assay [4], > 100 µM (inactive); in assay [5], 15.3 µM (inactive); in assay [6], 46.7 µM (inactive). The GI50 in assay [7] was 37.1 µM (inactive); in assay [8] it was 65.9 µM (inactive); in assay [9], 32.1 µM (inactive); in assay [10] it was > 100 µM (inactive); in assay [11], > 100 µM (inactive); in assay [12] it was > 100 µM (inactive). For the same compound, the GI50 in [13] was > 100 µM (inactive); in assay [14] it was 88.3 µM (inactive); in assay [15] it was > 100 µM (inactive); in assay [16] it was > 100 µM (inactive); in assay [17], > 100 µM (inactive); in assay [18], > 100 µM (inactive).
Regarding `O=C(Oc1cccnc1)c1cc2cc(CCl)ccc2oc1=O`, the GI50 in assay [1] was 18.8 µM (inactive); in [2] it was 29.5 µM (inactive); in assay [3], 21.7 µM (inactive); in assay [4] it was 18.9 µM (inactive); in assay [5], 20.8 µM (inactive); in [6] it was 24.3 µM (inactive). Besides, the GI50 is 17.7 µM (inactive) in [7]; 31 µM (inactive) in assay [8]; 18.5 µM (inactive) in assay [9]; 20.7 µM (inactive) in [19]; 18.7 µM (inactive) in assay [10]; 31.6 µM (inactive) in assay [11]. Moreover, the GI50 in assay [12] was 25.4 µM (inactive); in assay [13], 35.3 µM (inactive); in assay [14] it was 24.5 µM (inactive); in assay [15], 24.3 µM (inactive); in assay [16] it was 76.2 µM (inactive); in assay [17] it was 22.6 µM (inactive). Moreover, the GI50 in assay [18] is 20 µM (inactive).
Consider `O=C(N/N=C/C=C/c1ccc([N+](=O)[O-])o1)c1ccc(C(=O)N/N=C/C=C/c2ccc([N+](=O)[O-])o2)cc1`, for which the GI50 in [1] is > 47 µM (inactive); in assay [2] it was 36.7 µM (inactive); in assay [3], > 69.2 µM (inactive); in assay [4], 32.6 µM (inactive); in [5], 31.8 µM (inactive); in [6], > 72.3 µM (inactive). For the same compound, the GI50 in assay [7] is 12.7 µM (inactive); in [8] it was > 40.8 µM (inactive); in assay [9], 20.1 µM (inactive); in assay [19] it was 1.93 µM (inactive); in assay [10], 38.6 µM (inactive); in assay [11], > 100 µM (inactive). For the same compound, the GI50 in assay [12] is > 100 µM (inactive); in [13], 19.1 µM (inactive); in assay [14], 7.62 µM (inactive); in assay [15] it was 17.3 µM (inactive); in assay [16] it was 46.7 µM (inactive); in assay [17] it was > 100 µM (inactive). In assay [18], the GI50 was > 67.6 µM (inactive).
With `O=NC1C(Cl)C2CC1C1C(Br)C(Br)CC21` (stereo unspecified), the GI50 in assay [1], in [2], in assay [3], in [4], in assay [5] and in assay [6] was > 100 µM (inactive) throughout. The GI50 in assay [7] is > 100 µM (inactive); in assay [8] it was > 100 µM (inactive); in assay [9] it was > 100 µM (inactive); in [19] it was 62.7 µM (inactive); in assay [10], > 100 µM (inactive); in assay [11], > 100 µM (inactive). Further, the GI50 in assay [12] is > 100 µM (inactive); in assay [13], > 100 µM (inactive); in [14] it was 20.8 µM (inactive); in [15], > 100 µM (inactive); in [16] it was > 100 µM (inactive); in assay [17], > 100 µM (inactive). Moreover, the GI50 in assay [18] is > 100 µM (inactive).
Turning to `O[C@H]1[C@@H]2OC[C@@H](O)[C@H](OCc3ccccc3)[C@@](COCc3ccccc3)(O2)[C@@H]1OCc1ccccc1`, the GI50 was 18.5 µM (inactive) in assay [1]; 16.7 µM (inactive) in [2]; 15.2 µM (inactive) in assay [3]; 16.7 µM (inactive) in assay [4]; 17.2 µM (inactive) in assay [5]; 12 µM (inactive) in assay [6]. In addition, the GI50 in [7] is 20.1 µM (inactive); in [8], 20.3 µM (inactive); in assay [9], 19.9 µM (inactive); in assay [19], 17.4 µM (inactive); in [10], < 0.01 µM (active); in [11], 17.2 µM (inactive). Also, the GI50 in [12] is 14.7 µM (inactive); in [13], 18.5 µM (inactive); in assay [14], 10.4 µM (inactive); in assay [15] it was 16 µM (inactive); in assay [16], 17.2 µM (inactive); in assay [17] it was 15.1 µM (inactive). Further, the GI50 in assay [18] is 16.7 µM (inactive).
Regarding `O=C1CC2(CCC(O)(c3ccc(Cl)cc3)C(C(=O)c3ccc(Cl)cc3)C2)C(=O)c2ccccc2N1` (stereo unspecified), the GI50 in assay [1] is 6.82 µM (inactive); in assay [2], 11.6 µM (inactive); in assay [3], > 100 µM (inactive); in assay [4], 3.64 µM (inactive); in assay [5], 9.86 µM (inactive); in assay [6], 0.877 µM (active). Also, the GI50 in assay [7] was 6.17 µM (inactive); in assay [8], 3.33 µM (inactive); in [9], 1.34 µM (inactive); in [19] it was 4.61 µM (inactive); in assay [10], 9.62 µM (inactive); in [11] it was > 100 µM (inactive). Also, the GI50 in assay [12] is 1.48 µM (inactive); in assay [13] it was 27.4 µM (inactive); in assay [14], 18.6 µM (inactive); in assay [15], 2.6 µM (inactive); in [16] it was 3.35 µM (inactive); in assay [17], > 71 µM (inactive). For the same compound, in [18], the GI50 was 17.6 µM (inactive).
For `Fc1cc(C2=Nn3c(COc4ccccc4Cl)nnc3S/C2=C\c2ccc(Cl)cc2)c(Cl)cc1Cl`, the GI50 in assay [1] is 5.97 µM (inactive); in [2], 4.24 µM (inactive); in assay [3], 13.3 µM (inactive); in assay [4], 4.66 µM (inactive); in [5] it was 11.6 µM (inactive); in assay [6], 9.84 µM (inactive). Besides, the GI50 in assay [7] was 2.74 µM (inactive); in assay [8], 3.38 µM (inactive); in assay [9] it was 4.23 µM (inactive); in assay [19], 9.04 µM (inactive); in [10] it was 8.02 µM (inactive); in assay [11], 3.21 µM (inactive). Moreover, the GI50 in assay [12] is 11.8 µM (inactive); in assay [13], 3.54 µM (inactive); in assay [14], 3.08 µM (inactive); in assay [15], 3.2 µM (inactive); in assay [16], 15.8 µM (inactive); in assay [17] it was 3.96 µM (inactive). For the same compound, in assay [18], the GI50 was 6.4 µM (inactive).
Turning to `CN(C)CCCN1C(=S)N(CCCN(C)C)c2c3cc(O)ccc3nc3c([N+](=O)[O-])ccc1c23`, the GI50 in assay [1] was 2.47 µM (inactive); in assay [2], 6.07 µM (inactive); in assay [3], 6.47 µM (inactive); in assay [4] it was 0.703 µM (active); in [5] it was 11.5 µM (inactive); in assay [6], 2.61 µM (inactive). Besides, the GI50 is 1 µM (active) in assay [7]; 0.34 µM (active) in [8]; 1.07 µM (active) in assay [9]; 1.18 µM (inactive) in assay [19]; 1.66 µM (inactive) in [10]; 2.7 µM (inactive) in [11]. Besides, the GI50 in assay [12] was 5.61 µM (inactive); in assay [13], 1.96 µM (inactive); in [14] it was 4.46 µM (inactive); in [15] it was 2.46 µM (inactive); in assay [16], 2.61 µM (inactive); in [17] it was 11.8 µM (inactive). Further, the GI50 in assay [18] is 2.87 µM (inactive).
